From patent publication US7122533B2, “Cosalane compounds and methods for their use” (The United States of America as represented by the …, priority 1999, dated 2006)

How the values were obtained:
Assay type in all cases: cell-based
[1] = system: human monocytes (RANTES-induced migration); assay: RANTES-induced monocyte migration (micro-chemotaxis chamber)
Experimental: (§1) Human embryonic kidney cells 293 (HEK-293) transfected to express human CCR1, CCR3, or CCR5 receptors were cultured in Dulbecco's Modified Eagles Medium (DMEM, Biowhiftaker, Walkersville, Md.) containing 10% Fetal Bovine Serum (FBS, Hyclone, Logan, Utah), 2 mM glutamine and 100 U/ml penicillin and streptomycin (Quality Biologicals, Gaithersburg, Md.). Peripheral blood mononuclear cells were isolated from fresh normal donor apheresis packs by centrifugation over Ficoll. Monocytes were enriched by 85–95% using percoll fractionation (Pharmacia, Piscataway, N.J.).
(§2) Monocyte chemotaxis was performed as previously described [Wang (1993) J. Immunol. 150:3022–3029]. Briefly, monocytes were resuspended in binding media (RPMI-1640 media containing 1% BSA, 25 mM HEPES, pH 8.0) at 1–2×10^6 cells/ml. Chemokines, diluted in binding media, were mixed with cosalane or the indicated cosalane analog and placed in the lower wells of a micro-chemotaxis chamber (Neuro Probe, Cabin John, Md.). Five micrometer polyvinyl-free polycarbonate membranes were placed over the chemokine mixtures. After the micro-chemotaxis chamber was assembled, 50 μl of cells were placed in the upper wells. The filled chemotaxis chambers were incubated in a humidified CO2 incubator for 90 minutes.
(§3) After incubating, the membranes were removed from the chemotaxis chamber assembly followed by gently removing the cells from the upper side of the membrane. Then cells on the lower side of the membrane were stained.
(§4) The number of cells migrating to the chemokine mixtures was determined for binding media alone, and chemokine treated and untreated cells. HEK-293 cells transfected to express human CCR1, CCR3 or CCR5 receptors were resuspended in binding media at 7.5×10^5 cells/ml. Ten μm polyvinyl-free polycarbonate membranes (Neuro Probe) were treated with 47 ug/ml rat tail collagen type 1 (Collaborative Biomedical Products, Bedford, Md.) in RPMI-1640 overnight, dried and placed over the chemoattractants. The assembled chemotaxis chambers were incubated in a humidified CO2 incubator for 5.5–6 hours. After the incubation, the membranes were removed from the chemotaxis chamber assembly followed by gently removing cells from the upper side of the membrane. The stained and dried membrane was mounted and the cells on the underside of the membrane were counted at 200× magnification. The results are reported as the average number of cells per high powered field at a given chemokine concentration±standard deviation.

human CCR1 [2] = biological target: T1, human CCR1 (Homo sapiens, UniProt P32246); assay: RANTES-induced CCR1/HEK-293 transfectant migration
T1 construct: expressed in transfected cells; host or cells: HEK-293
T1 sequence (P32246 1-355): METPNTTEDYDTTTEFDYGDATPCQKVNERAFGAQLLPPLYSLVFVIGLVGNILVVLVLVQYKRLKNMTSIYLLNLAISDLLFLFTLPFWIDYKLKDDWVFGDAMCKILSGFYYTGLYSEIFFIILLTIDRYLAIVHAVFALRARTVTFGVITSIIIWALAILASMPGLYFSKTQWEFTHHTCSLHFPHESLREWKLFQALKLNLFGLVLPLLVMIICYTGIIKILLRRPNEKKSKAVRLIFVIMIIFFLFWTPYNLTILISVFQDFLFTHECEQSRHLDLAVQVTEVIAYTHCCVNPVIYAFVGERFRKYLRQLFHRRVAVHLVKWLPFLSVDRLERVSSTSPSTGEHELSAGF
Experimental: as §1, with “Ficoll.” for “Ficoll. Monocytes were enriched by 85–95% using percoll fractionation (Pharmacia, Piscataway, N.J.).”
as §4, with “magnification.” for “magnification. The results are reported as the average number of cells per high powered field at a given chemokine concentration±standard deviation.”

[3] = system: human monocytes (SDF-1α-induced migration; CXCR4 ligand); assay: SDF-1α-induced monocyte/lymphocyte migration; settings: compound at 1 μM, FIG. 1
Experimental: as §2, §3
The number of cells migrating to the chemokine mixtures was determined for binding media alone, and chemokine treated and untreated cells. […] The stained and dried membrane was mounted and the cells on the underside of the membrane were counted at 200× magnification. […]
The ability of the cosalane analogs 3 and 4 to block SDF-1α (a CXCR4 ligand) and RANTES (a CCR1, CCR3, and CCR5 ligand) induced migration of human monocytes or lymphocytes was initially evaluated. […]

[4] = system: human monocytes (MIP1-α-induced migration); assay: MIP1-α-induced monocyte migration; settings: compound at 1 μM, chemokine at 2.5 ng/ml, data not shown
Experimental: as §2, with “Chemokines, diluted in binding media, were mixed with cosalane or the indicated cosalane analog and placed in the lower wells of a micro-chemotaxis chamber (Neuro Probe, Cabin John, Md.).” left out
as §3
as §4, with “magnification.” for “magnification. The results are reported as the average number of cells per high powered field at a given chemokine concentration±standard deviation.”
(§5) It is noted that both MIP1-α and MIP1-β are ligands for CCR1, CCR5, and D6 (8).

[5] = system: human monocytes (MIP1-β-induced migration); assay: MIP1-β-induced monocyte migration; settings: compound at 1 μM, chemokine at 2.5 ng/ml, data not shown
Experimental: as §2, with “Chemokines, diluted in binding media, were mixed with cosalane or the indicated cosalane analog and placed in the lower wells of a micro-chemotaxis chamber (Neuro Probe, Cabin John, Md.).” left out
as §3
as §4, with “magnification.” for “magnification. The results are reported as the average number of cells per high powered field at a given chemokine concentration±standard deviation.”
as §5

human CCR5 = biological target: T2, human CCR5 (Homo sapiens, UniProt P51681); assay: RANTES-induced CCR5/HEK-293 transfectant migration; settings: compound at 1 μM, FIG. 2
T2 construct: expressed in transfected cells; host or cells: HEK-293
Experimental: as §1
as §4, with “After the incubation, the membranes were removed from the chemotaxis chamber assembly followed by gently removing cells from the upper side of the membrane.” left out, “The results are reported as the average number of cells per high powered field at a given chemokine concentration±standard deviation.” left out

human CCR1 [6] = biological target: T1, human CCR1; assay: MIP1α-induced migration of CCR1 transfectants; settings: compound at 1 μM, data not shown
Experimental: as §1, §4
(§6) The ability of compound 3 to inhibit RANTES-induced migration of human embryonic kidney (HEK) cells transfected to express individual chemokine receptors was initially tested. Although the cosalane analog 3 (1 μM) had no effect on RANTES-induced migration of CCR5 transfectants, it inhibited 50% of RANTES-induced CCR1 transfectant migration (FIG. 2). In contrast, the MIP1α- and MIP1β-induced migration of CCR1 transfectants was not inhibited by compounds 1, 2 or 3 when tested at concentrations of 1 μM (data not shown).

human CCR1 [7] = biological target: T1, human CCR1; assay: MIP1β-induced migration of CCR1 transfectants; settings: compound at 1 μM, data not shown
Experimental: as §1, §4, §6

[8] = system: MCP-4/CCR2-mediated monocyte migration; assay: MCP-4-induced human monocyte migration; settings: FIG. 3
Experimental: as §2, §3, §4
Although MCP-4 is known to bind to CCR2 and CCR3, fresh primary human monocytes only express high levels of CCR2.

[9] = system: human monocytes (acetylated RANTES-induced migration); assay: monocyte migration induced by acetylated (modified) RANTES; settings: 10 μM compound; acetylated RANTES 50–1000 ng/mL, FIG. 6
Experimental: as §2, §3
as §4, with “deviation. […]” for “deviation.”

T2 sequence (P51681 whole entry): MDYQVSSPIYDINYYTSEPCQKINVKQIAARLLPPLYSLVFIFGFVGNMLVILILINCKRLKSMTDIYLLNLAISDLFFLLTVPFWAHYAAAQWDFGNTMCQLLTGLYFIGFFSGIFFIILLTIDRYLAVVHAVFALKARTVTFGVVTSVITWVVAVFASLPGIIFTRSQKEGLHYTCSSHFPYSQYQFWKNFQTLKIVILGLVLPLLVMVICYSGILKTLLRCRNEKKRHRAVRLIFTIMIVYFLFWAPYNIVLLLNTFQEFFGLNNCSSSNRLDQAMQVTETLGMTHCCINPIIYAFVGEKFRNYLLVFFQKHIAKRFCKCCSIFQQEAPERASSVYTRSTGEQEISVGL

SMILES: CC(C)CCCC(C)[C@H]1CCC2C3CCC4C[C@@H](CCC=C(c5cc(Cl)c(OCc6ccccc6C(=O)O)c(C(=O)O)c5)c5cc(Cl)c(OCc6ccccc6C(=O)O)c(C(=O)O)c5)CC[C@]4(C)C3CC[C@@]21C (stereo partly shown) [Compound 3]
- IC50 ([1]; Homo sapiens, Monocyte, ≦ 5% standard error, NA = not active): 3.9 µM
- inhibition of RANTES-induced monocyte migration ([1]; compound at 1 μM, FIG. 1): effective inhibitor
- activity as inhibitors of RANTES-induced migration ([1]; discussion of Table 1): retain activity
- inhibition at 1 µM (human CCR1 [2]; HEK293, compound at 1 μM, FIG. 2): 50%
- IC50 (human CCR1 [2]; ≦ 5% standard error, NA = not active, read-out: IC50 (μM) RANTES-Induced CCRI/HEK Migration): 0.26 µM
- inhibition of SDF-1α-induced monocyte migration [3]: effective inhibitor
- inhibition of MIP1-α-induced monocyte migration [4]: neither MiP1-α- nor MIP1-β-induced monocyte migration was inhibited
- inhibition of MIP1-β-induced monocyte migration [5]: neither MiP1-α- nor MIP1-β-induced monocyte migration was inhibited
- effect on RANTES-induced migration of CCR5 transfectants (human CCR5): no effect
- inhibition of MIP1α-induced migration of CCR1 transfectants (human CCR1 [6]): not inhibited
- inhibition of MIP1β-induced migration of CCR1 transfectants (human CCR1 [7]): not inhibited
- block of MCP-4/CCR2-mediated monocyte migration [8]: block
- inhibition of the activity of modified (acetylated) RANTES to attract monocytes [9]: not inhibited
